test system: Bovine cardiac myofibrils; test: In vitro model of dose-dependent myofibril ATPase modulation (AC1.4, pyruvate kinase/lactate dehydrogenase-coupled ATPase assay at pCa25); type: biochemical; conditions: concentration at which ATPase activity was 1.4-fold higher than the bottom of the dose curve, mean of a minimum of two independent tests
Description: In vitro Model of Dose-Dependent Myofibril ATPase Modulation: Dose responses were measured using a calcium-buffered, pyruvate kinase and lactate dehydrogenase-coupled ATPase assay containing the following reagents (concentrations expressed are final assay concentrations): Potassium PIPES (12 mM), MgCl2 (2 mM), ATP (1 mM), DTT (1 mM), BSA (0.1 mg/mi), NADH (0.5 mM), PEP (1.5 mM), pyruvate kinase (4 U/ml), lactate dehydrogenase (8 U/ml), and antifoam (90 ppm). The pH was adjusted to 6.80 at 22° C. by addition of potassium hydroxide.
Bovine cardiac myofibrils were obtained by homogenizing the appropriate tissue in the presence of detergent. Such treatment removes membranes and majority of soluble cytoplasmic proteins but leaves intact cardiac sarcomeric acto-myosin apparatus. Concentrations of myofibrils were adjusted to achieve the necessary rate of ATP hydrolysis (typically 0.25-1.0 mg/ml).
Assays were performed by first preparing a dilution series of test chemical entity, each with an assay mixture containing potassium Pipes, MgCl2, BSA, DTT, pyruvate kinase, lactate dehydrogenase, myofibrils, antifoam, EGTA, CaCl2, and water. The assay was started by adding an equal volume of solution containing potassium Pipes, MgCl2, BSA, DTT, ATP, NADH, PEP, antifoam, and water. ATP hydrolysis was monitored by absorbance at 340 nm. The resulting dose response curve was fit by the 4 parameter equation y=Bottom+((Top−Bottom)/(1+((EC50/X)^Hill))). […] AC1.4 values reported in the table below are mean values based on a minimum of two independent tests.

| AC1.4 | SMILES |
| --- | --- |
| 0.02495 µM | C[C@@H](NC(=O)[C@H]1COCCN1C(=O)c1cccc(S(=O)(=O)N2CC(C#N)C2)c1)c1ccc(C(F)(F)F)cc1 [Example 19, (R)-4-(3-((3-cyanoazetidin-1-yl)sulfonyl)benzoyl)-N—((R)-1-(4-(trifluoromethyl)phenyl)ethyl)morpholine-3-carboxamide] |
| 0.02545 µM | N#CC1CN(S(=O)(=O)N2CCC[C@H](C(=O)N3CCC[C@@H]3C(=O)NCc3cc(F)c(Cl)cc3F)C2)C1 [Example 20, N-(4-chloro-2,5-difluorobenzyl)-1-(((3S)-1-((3-cyano-1-azetidinyl)sulfonyl)-3-piperidinyl)carbonyl)-D-prolinamide] |
| 0.02715 µM | N#CC1CN(S(=O)(=O)c2cccc(C(=O)N3CCC[C@@H]3C(=O)NCc3ccc(Cl)c(Cl)c3)c2)C1 [Example 22, 1-((3-((3-cyano-1-azetidinyl)sulfonyl)phenyl)carbonyl)-N-(3,4-dichlorobenzyl)-D-prolinamide] |
| 0.0287 µM | CCNc1ccc(C)cc1C(=O)N1[C@@H](C(=O)N[C@@H](c2ccc(C(F)(F)F)cc2F)C2COC2)C[C@H]2C[C@H]21 [Example 23, (1R,3R,5R)-2-(2-(ethylamino)-5-methylbenzoyl)-N-((R)-(2-fluoro-4-(trifluoromethyl)phenyl)(3-oxetanyl)methyl)-2-azabicyclo[3.1.0]hexane-3-carboxamide] |
| 0.02875 µM | N#CC1CN(S(=O)(=O)c2cccc(C(=O)N3CCC[C@@H]3C(=O)N[C@H](CO)c3ccc(Cl)c(F)c3)c2)C1 [Example 24, N-((1S)-1-(4-chloro-3-fluorophenyl)-2-hydroxyethyl)-1-(3-((3-cyano-1-azetidinyl)sulfonyl)benzoyl)-D-prolinamide] |
| 0.0289 µM | N#CC1CN(S(=O)(=O)N2CCC[C@H](C(=O)N3CC(F)(F)C[C@@H]3C(=O)NCc3ccc(C(F)(F)F)cc3)C2)C1 [Example 25, 1-(((3S)-1-((3-cyano-1-azetidinyl)sulfonyl)-3-piperidinyl)carbonyl)-4,4-difluoro-N-(4-(trifluoromethyl)benzyl)-D-prolinamide] |
| 0.0296 µM | CS(=O)(=O)c1ccc(NC2CC2)c(C(=O)N2CCC[C@@H]2C(=O)N[C@@H](c2ccc(C(F)(F)F)cc2F)C2CC2)c1 [Example 26, 1-(2-(cyclopropylamino)-5-(methylsulfonyl)benzoyl)-N-((R)-cyclopropyl(2-fluoro-4-(trifluoromethyl)phenyl)methyl)-D-prolinamide] |
| 0.03125 µM | N#CC1CN(S(=O)(=O)N2CCC[C@H](C(=O)N3CCC[C@@H]3C(=O)N[C@H](CC(F)(F)F)c3ccc(C(F)(F)F)cc3)C2)C1 [Example 28, 1-(((3S)-1-((3-cyano-1-azetidinyl)sulfonyl)-3-piperidinyl)carbonyl)-N-((1R)-3,3,3-trifluoro-1-(4-(trifluoromethyl)phenyl)propyl)-D-prolinamide] |
| 0.03155 µM | C[C@@H](NC(=O)[C@H]1CCCN1C(=O)[C@H]1CCCN(S(=O)(=O)N2CC(C#N)C2)C1)c1ccc(C(F)(F)F)cc1F [Example 29, 1-(((3S)-1-((3-cyano-1-azetidinyl)sulfonyl)-3-piperidinyl)carbonyl)-N-((1R)-1-(2-fluoro-4-(trifluoromethyl)phenyl)ethyl)-D-prolinamide] |
| 0.0318 µM | N#CC1CN(S(=O)(=O)c2cccc(C(=O)N3CCC[C@@H]3C(=O)N[C@@H](c3ccc(C(F)(F)F)cc3)C3CC3)c2)C1 [Example 30, 1-(3-((3-cyano-1-azetidinyl)sulfonyl)benzoyl)-N-((R)-cyclopropyl(4-(trifluoromethyl)phenyl)methyl)-D-prolinamide] |
| 0.03275 µM | N#CC1CN(S(=O)(=O)c2cccc(C(=O)N3CCC[C@@H]3C(=O)N[C@H](CO)c3ccc(C(F)(F)F)cc3)c2)C1 [Example 31, 1-(3-((3-cyano-1-azetidinyl)sulfonyl)benzoyl)-N-((1S)-2-hydroxy-1-(4-(trifluoromethyl)phenyl)ethyl)-D-prolinamide] |
| 0.0335 µM | N#CC1CN(S(=O)(=O)N2CCC[C@H](C(=O)N3CCC[C@@H]3C(=O)NCc3ccc(C(F)(F)F)c(F)c3)C2)C1 [Example 32, 1-(((3S)-1-((3-cyano-1-azetidinyl)sulfonyl)-3-piperidinyl)carbonyl)-N-(3-fluoro-4-(trifluoromethyl)benzyl)-D-prolinamide] |
| 0.03455 µM | N#CC1CN(S(=O)(=O)N2CCC[C@H](C(=O)N3[C@@H](C(=O)NCc4ccc(C(F)(F)F)cc4F)C[C@H]4C[C@H]43)C2)C1 [Example 33, (1R,3R,5R)-2-(((3S)-1-((3-cyano-1-azetidinyl)sulfonyl)-3-piperidinyl)carbonyl)-N-(2-fluoro-4-(trifluoromethyl)benzyl)-2-azabicyclo[3.1.0]hexane-3-carboxamide] |
| 0.0361 µM | CCNc1ccc(C)cc1C(=O)N1C[C@H](O)C[C@@H]1C(=O)N[C@@H](c1cc(F)c(Cl)cc1F)C1COC1 [Example 34, (4R)-N-((R)-(4-chloro-2,5-difluorophenyl)(3-oxetanyl)methyl)-1-(2-(ethylamino)-5-methylbenzoyl)-4-hydroxy-D-prolinamide] |
| 0.0372 µM | N#CC1CN(S(=O)(=O)N2CCC[C@H](C(=O)N3CCC[C@@H]3C(=O)N[C@@H](c3cc(F)c(C(F)(F)F)cc3F)C3CC3)C2)C1 [Example 35, 1-(((3S)-1-((3-cyano-1-azetidinyl)sulfonyl)-3-piperidinyl)carbonyl)-N-((R)-cyclopropyl(2,5-difluoro-4-(trifluoromethyl)phenyl)methyl)-D-prolinamide] |
| 0.03765 µM | N#CC1CN(S(=O)(=O)N2CCC[C@H](C(=O)N3CCC[C@@H]3C(=O)N[C@H](CCO)c3ccc(C(F)(F)F)cc3)C2)C1 [Example 36, 1-(((3S)-1-((3-cyano-1-azetidinyl)sulfonyl)-3-piperidinyl)carbonyl)-N-((1R)-3-hydroxy-1-(4-(trifluoromethyl)phenyl)propyl)-D-prolinamide] |
| 0.0383 µM | N#CC1CN(S(=O)(=O)c2cccc(C(=O)N3CCC[C@@H]3C(=O)N[C@H](c3ccc(C(F)(F)F)cc3)C3CC3)c2)C1 [Example 37, 1-(3-((3-cyano-1-azetidinyl)sulfonyl)benzoyl)-N-((S)-cyclopropyl(4-(trifluoromethyl)phenyl)methyl)-D-prolinamide] |
| 0.0394 µM | N#CC1CN(S(=O)(=O)N2CCC[C@H](C(=O)N3CCC[C@@H]3C(=O)NCc3ccc(C(F)(F)F)c(Cl)c3)C2)C1 [Example 38, N-(3-chloro-4-(trifluoromethyl)benzyl)-1-(((3S)-1-((3-cyano-1-azetidinyl)sulfonyl)-3-piperidinyl)carbonyl)-D-prolinamide] |
| 0.0394 µM | N#CC1CN(S(=O)(=O)N2CCC[C@H](C(=O)N3CCC[C@@H]3C(=O)N[C@@H](c3cc(F)c(Cl)cc3F)C3CC3)C2)C1 [Example 39, N-((R)-(4-chloro-2,5-difluorophenyl)(cyclopropyl)methyl)-1-(((3S)-1-((3-cyano-1-azetidinyl)sulfonyl)-3-piperidinyl)carbonyl)-D-prolinamide] |
| 0.0398 µM | CS(=O)(=O)c1ccc(NC2CCC2)c(C(=O)N2[C@@H](C(=O)N[C@@H](c3ccc(C(F)(F)F)cc3F)C3CC3)C[C@H]3C[C@H]32)c1 [Example 40, (1R,3R,5R)-2-(2-(cyclobutylamino)-5-(methylsulfonyl)benzoyl)-N-((R)-cyclopropyl(2-fluoro-4-(trifluoromethyl)phenyl)methyl)-2-azabicyclo[3.1.0]hexane-3-carboxamide] |
| 0.04135 µM | C[C@@H](NC(=O)[C@H]1CCCN1C(=O)c1cccc(S(=O)(=O)N2CC(C#N)C2)c1)c1ccc(C(F)(F)F)cc1 [Example 41, 1-((3-((3-cyano-1-azetidinyl)sulfonyl)phenyl)carbonyl)-N-((1R)-1-(4-(trifluoromethyl)phenyl)ethyl)-D-prolinamide] |
| 0.04293 µM | N#CC1CN(S(=O)(=O)c2cccc(C(=O)N3CCC[C@@H]3C(=O)NCc3ccc(C(F)(F)F)cc3F)c2)C1 [Example 42, 1-((3-((3-cyano-1-azetidinyl)sulfonyl)phenyl)carbonyl)-N-(2-fluoro-4-(trifluoromethyl)benzyl)-D-prolinamide] |
| 0.04337 µM | N#CC1CN(S(=O)(=O)c2cccc(C(=O)N3CCC[C@@H]3C(=O)NCc3ccc(Cl)cc3)c2)C1 [Example 43, N-(4-chlorobenzyl)-1-((3-((3-cyano-1-azetidinyl)sulfonyl)phenyl)carbonyl)-D-prolinamide] |
| 0.0434 µM | CS(=O)(=O)c1ccc(NC2CCC2)c(C(=O)N2CCC[C@@H]2C(=O)N[C@@H](c2ccc(C(F)(F)F)cc2F)C2CC2)c1 [Example 44, 1-(2-(cyclobutylamino)-5-(methylsulfonyl)benzoyl)-N-((R)-cyclopropyl(2-fluoro-4-(trifluoromethyl)phenyl)methyl)-D-prolinamide] |
| 0.0435 µM | CC(C)C[C@@H](NC(=O)[C@H]1CCCN1C(=O)c1cccc(S(=O)(=O)N2CC(C#N)C2)c1)c1ccc(C(F)(F)F)cc1 [Example 45, 1-(3-((3-cyano-1-azetidinyl)sulfonyl)benzoyl)-N-((1R)-3-methyl-1-(4-(trifluoromethyl)phenyl)butyl)-D-prolinamide] |

Reference: patent US11780826B2 (Amgen Inc., priority 2017, dated 2023)
